Assay [1] has as its system CCRF-CEM. Briefly: Concentration required to reduce 50% of the number of CEM/O cells in the HIV-1 infected cell cultures. Format: functional, cell-based. As to conditions: Homo sapiens.
Assay [2] relates to CEM-TK(+). Briefly: Concentration required to reduce 50% of the number of CEM/TK cells in the HIV-2 infected cell cultures. Type of assay: functional, cell-based. The conditions noted are these: Homo sapiens.
The subject of assay [3] is CCRF-CEM. Briefly: Concentration required to reduce 50% of the number of CEM/O cells in the HIV-2 infected cell cultures. Format: functional, cell-based. As to conditions: Homo sapiens.
Assay [4] has as its system CCRF-CEM. Put plainly: Concentration required to reduce 50% of the number of CEM/O cells in the mock infected cell cultures. Type of assay: functional. The conditions noted are these: Homo sapiens.
Assay [5] in a line: Selectivity index in the HIV-1 infected cell cultures. Format: functional.

With `CCCCCCCCCCCCOCCOP(=O)(O)OCC1OC(n2cc(C)c(=O)[nH]c2=O)CC1N=[N+]=[N-]` (stereo not drawn), the EC50 is 0.115 µM in assay [1], over 50 µM in assay [2] and 0.133 µM in assay [3]. Besides, half-maximal cytotoxicity in assay [4] (CC50) was put at 76.9 µM. The same compound came in with an SI in assay [5] of 669.
With `CCCCCCCCCCCCOC[C@H](C)OP(=O)(O)OCC1OC(n2cc(C)c(=O)[nH]c2=O)CC1N=[N+]=[N-]` (stereo partly drawn), the EC50 in assay [1] was 0.2 µM; in assay [2], over 50 µM; in assay [3], 0.26 µM. Further, the cytotoxic concentration (CC50) in assay [4] came out at 88 µM. For the same compound, in assay [5], the SI came out at 440.
On the same counts, the results for `Cc1cn(C2CC(N=[N+]=[N-])C(COP(=O)(O)OCCOc3cccc4ccccc34)O2)c(=O)[nH]c1=O` (stereo not drawn) are 0.013 µM, over 125 µM, 0.028 µM, over 125 µM and over 9615.
The matching figures for `CCCCCCCCCCCCO[C@@H](C)COP(=O)(O)OC[C@H]1O[C@@H](n2cc(C)c(=O)[nH]c2=O)C[C@@H]1N=[N+]=[N-]`: 0.32 µM, over 50 µM, 0.35 µM, 94.5 µM and 295.
On the same counts, the results for `CCCCCCCCCCCCOC[C@@H](C)OP(=O)(O)OCC1OC(n2cc(C)c(=O)[nH]c2=O)CC1N=[N+]=[N-]` (stereo partly drawn) are 2.17 µM, over 50 µM, 2.67 µM, 95.9 µM and 44.
Take `Cc1cn(C2CC(N=[N+]=[N-])C(COP(=O)(O)OCCOc3ccc4ccccc4c3)O2)c(=O)[nH]c1=O` (stereo not drawn): the EC50 in assay [1] is 0.015 µM; in assay [2], over 125 µM; in assay [3] it was 0.02 µM. This compound showed a CC50 in assay [4] of over 125 µM. The same compound gave an SI in assay [5] of over 8333.
As for `Cc1cn(C2CC(N=[N+]=[N-])C(COP(=O)(O)OCCOc3ccccc3)O2)c(=O)[nH]c1=O` (stereo not drawn), the concentration for a half-maximal effect (EC50) is 0.02 µM in assay [1], over 125 µM in assay [2] and 0.018 µM in assay [3]. In assay [4], this compound registered a CC50 of over 125 µM. This compound also yielded an SI in assay [5] of over 6250.
Consider `CCCCCCCCCCCCO[C@H](C)COP(=O)(O)OCC1O[C@@H](n2cc(C)c(=O)[nH]c2=O)C[C@@H]1N=[N+]=[N-]` (single isomer, unassigned), for which the EC50 was 0.5 µM in assay [1], over 50 µM in assay [2] and 0.5 µM in assay [3]. In assay [4], this compound gave a CC50 of 93 µM. This compound gave an SI in assay [5] of 186.
Take `Cc1cn([C@H]2C[C@H](N=[N+]=[N-])[C@@H](CO)O2)c(=O)[nH]c1=O` [ZIDOVUDINE]: the EC50 in assay [2] is over 100 µM. Besides, the CC50 in assay [4] was over 100 µM. This compound had an SI in assay [5] of over 16666.

Source of the values: ChEMBL document CHEMBL1129617, “Synthesis and antiretroviral evaluation of new alkoxy and aryloxy phosphate derivatives of 3'-azido-3'-deoxythymidine” (J Med Chem, 1996).
